Test results as given in patent publication US5312831A, “Urethanes and ureas that induce cytokine production” (American Cyanamid Company, priority 1993, dated 1994).

Experiments:
neutrophils [1] = experiment: Neutrophil recovery in 5-FU treated mice; format: in vivo, mouse; settings: mouse, in vivo
Method: (§1) Circulating Neutrophil Assay--Mice are treated with 5-FU (150 mg/kg) and beginning 24 hrs. later, treated daily with the test compound. Mice are bled daily by retroorbital puncture in heparinized capillary tubes. Circulating WBC counts are determined by Coulter counter. Blood smears are stained with Wright-Geimsa solution and the percentage circulating neutrophils determined by differential counting under a microscope.
(§2) 5-Fluorouracil (5-FU) Induced Neutropenia In Mice--Mice are treated ip with 150 mg/kg of the chemotherapy agent 5-FU which induces a severe loss of neutrophils in the peripheral blood 5-6 days later. Twenty-four hrs. after the dose, treatment with the test compounds is initiated. The effect of the test compounds on recovery of neutrophil progenitor cells in the bone marrow is determined by the CFU-GM assay. The recovery of circulating neutrophils is followed by differential staining of the peripheral blood.
*Data from 10 mice/group on day 7 post treatment with 150 mg/kg of 5FU.
Beginning 24 hrs. after 5FU dose, mice were treated daily with test
compound at concentrations indicated. Neutrophil count for normal mice (n
**Mice treated with 5FU and vehicle only.

neutrophils [2] = experiment: Oral dosing: neutrophil recovery in 5-FU treated mice; format: in vivo, mouse; settings: for Neutrophils/cu. mm.: day 7 post 5FU, 0 dose 67 ± 22
Method: as §1, §2
Groups of 5 mice are treated with 150 mg/kg of 5-FU. One day later, daily oral dosing with test compounds begins and continues for 10 days. […]

neutrophils [3] = experiment: Neutrophil recovery in cytoxan treated primates; format: in vivo, cynomolgous monkeys; settings: for Absolute Neutrophil Count/cu. mm. of Blood: Cytoxan + Ex. 32 (50 μg/kg daily s.c.)
Method: Groups of 4 cynomolgous monkeys are treated on day 1 and day 0 with
cytoxan at 60 mg/kg. Beginning 24 hours after the second cytoxan dose, on
group is treated daily s.c. with 50 μg/kg of test compound and the
other with vehicle (water) only.
*p < 0.05 versus cytoxan only control by Student's t test.

CSF [4] = experiment: Serum colony stimulating factor (CSF) assay in mice; format: in vivo, mouse; settings: serum 4 hours after injection
Method: Colony forming assays Granulocyte-Macrophage (CFU-GM)--Mice are treated with 150 mg/kg of 5-Fu and treatment with test compound begins 24 hrs. later. On consecutive days, mice are killed by cervical dislocation and the femurs removed under sterile conditions. Femurs are flushed with 1 ml of ice cold medium (Iscove's supplemented with 20% FCS, 1% penicillin-streptomycin, 1% glutamine and 5×10^-5 M 2-mercaptoethanol). Bone marrow cells (5×10^5) are then plated in 12×75 mm tissue culture plates in 3 ml of warm ararose (3%) in Iscove's medium with 100 Units/ml of recombinant mouse GM-CSF purchased from Genzyme (Boston, Mass.). Plates are incubated for 7 days at 37° C. in 5% CO2. After 7 days, colonies of 50 cells or greater are enumerated under a dissecting microscope.
Bone marrow cells are prepared as described above for the CFU-GM assay. The cells are then incubated in soft agar with an 0.3% final concentration of serum taken from mice 4 hours after injection with test compounds. After 7 days of incubation at 37° C., the number of colony forming (CFU) cells per 10^5 plated bone marrow cells is determined by counting colonies of more than 50 cells under a dissecting microscope. The data are reported as CFU/10^5 bone marrow cells.

neutrophils [5] = experiment: Neutrophil recovery in 5-FU treated mice; format: in vivo, mouse; settings: day 8 post 5FU, 0 dose 144 ± 36
IL-6 = experiment: Serum IL-6 production in mice after single s.c. injection (7TD1 bioassay); format: in vivo, mouse; settings: serum 4 h post injection
Method: Description of Biological Assays Interleukin 6(IL-6) assay for structure function analysis--Test compounds are dissolved in water and administered subcutaneously in 0.2 ml to deliver a dose of 0.1-10 mg/kg. The less soluble compounds are first dissolved in 100% ethanol and then brought to the appropriate concentration in water. Four hours post injection, the mice are bled and the serum is retrieved. The IL-6 dependent cell line 7TDl is used to assay serial dilutions of sera for IL-6 content. 7TDl cells (1×10^4) are placed in microtiter wells and incubated at 37° C. for 72 hours with standard recombinant mouse IL-6 or with dilutions of serum to be tested. Over the last 6 hours, the cells are pulsed with ^3 H-Tdr (μci). Cells are then harvested and the degree of proliferation determined by the uptake of ^3 H-Tdr as measured by liquid scintillation spectrometry. The concentration of IL-6 in serum is calculated from standard curves utilizing recombinant IL-6 from R&D Systems Inc. and are reported in units of IL-6 activity as defined by the manufacturer.

CSF [6] = settings: literature; cited from earlier work
bone marrow = settings: myelosuppression caused by chemotherapy or radiation; literature; cited from earlier work
[7] = test system: bone marrow progenitor cells; experiment: Delta assay: expansion of bone marrow progenitor cells in vitro, with c-kit ligand (KL); format: cell-based, mouse; settings: KL alone, 7 day in vitro incubation; medium alone 0
Method: Delta Assay--Mice are treated with a single dose of 5-FU (150 mg/kg ip). Twenty-four hours later, bone marrow cells are removed and split into 2 aliquots. […] After 14 days, the number of colonies is determined (CFU-1). A second aliquot of cells is placed in liquid culture with single growth factors or drugs or combinations of each to assess the ability of these agents to expand the colony forming cell pool. After 7 days in liquid culture, these cells are harvested and plated in soft agar with IL-1 and GM-CSF as with the first aliquot. After 14 days the number of colonies in the second aliquot is determined (CFU-2). The ratio or delta is calculated as CFU-2/CFU-1 and this ratio is used to ascertain the ability of the growth factors and/or drugs used in the liquid phase to induce growth of the colony forming cells (CFU) or differentiation of pre-CFU to CFU.
Bone marrow cells from 5-FU treated mice are used to enrich for early progenitor cells. The cells are split into 2 aliquots as described in the methods section for the "delta assay." The fold increase is determined by measuring the effect of a 7 day in vitro incubation of the cells with tissue culture medium plus test compound and/or growth factor KL on colony forming dells (CFU). The number of CFUs are then compared with colony formation of the fresh bone marrow cells that were not incubated in vitro to determine the fold increase. Test compound is used in vitro at 0.5 μg/ml.

**Q.** Which “neutrophil recovery in 5-FU treated mice (in words)” value (neutrophils [1]) does the source give for `CCCCCCC(=O)N[C@H](COC(=O)N[C@@H](CCC[C@@H](N)C(=O)O)C(=O)N[C@H](C)C(=O)O)C(=O)O` [Example 32, (R)-N-[(R)-6-carboxy-N^2-[[2-carboxy-2-[(1-oxoheptyl)amino]ethoxy]carbonyl]-L-lysyl]-D-Alanine] here?
**A.** Its value is “induce neutrophil recovery in 5-FU treated mice”.

**Q.** And the Neutrophils/cu. mm. (neutrophils [2]; 1 mg/kg daily oral)?
**A.** Its Neutrophils/cu. mm. is 547 ± 232 /cu. mm.

**Q.** And the Neutrophils/cu. mm. (neutrophils [2]; 10 mg/kg daily oral)?
**A.** Its Neutrophils/cu. mm. is 1844 ± 814 /cu. mm.

**Q.** What about the “neutrophil recovery in 5-FU treated mice when given orally (in words)” value (neutrophils [2]; oral) of the same compound?
**A.** Its value is “active in accelerating neutrophil recovery”.

**Q.** What about the “Absolute Neutrophil Count/cu. mm. of Blood” value (neutrophils [3]; day 0 after cytoxan, cytoxan only 3640 ± 1058) of the same compound?
**A.** Its value is 3554 ± 1194 /cu. mm. of Blood.

**Q.** And the “Absolute Neutrophil Count/cu. mm. of Blood” value (neutrophils [3]; day 1 after cytoxan, cytoxan only 4900 ± 971)?
**A.** Its value is 7849 ± 1592 /cu. mm. of Blood.

**Q.** And the “Absolute Neutrophil Count/cu. mm. of Blood” value (neutrophils [3]; day 2 after cytoxan, cytoxan only 2689 ± 156)?
**A.** The value was 4679 ± 867 /cu. mm. of Blood.

**Q.** And the “Absolute Neutrophil Count/cu. mm. of Blood” value (neutrophils [3]; day 3 after cytoxan, cytoxan only 1935 ± 126)?
**A.** The value was 1080 ± 264 /cu. mm. of Blood.

**Q.** And the “Absolute Neutrophil Count/cu. mm. of Blood” value (neutrophils [3]; day 4 after cytoxan, cytoxan only 1442 ± 344)?
**A.** The value was 370 ± 171 /cu. mm. of Blood.

**Q.** What about the “Absolute Neutrophil Count/cu. mm. of Blood” value (neutrophils [3]; day 5 after cytoxan, cytoxan only 856 ± 295) of the same compound?
**A.** The value was 455 ± 208 /cu. mm. of Blood.

**Q.** What about the “Absolute Neutrophil Count/cu. mm. of Blood” value (neutrophils [3]; day 6 after cytoxan, cytoxan only 1009 ± 292) of the same compound?
**A.** Its value is 518 ± 218 /cu. mm. of Blood.

**Q.** What about the “Absolute Neutrophil Count/cu. mm. of Blood” value (neutrophils [3]; day 7 after cytoxan, cytoxan only 852 ± 301) of the same compound?
**A.** Its value is 1304 ± 1046 /cu. mm. of Blood.

**Q.** And the “Absolute Neutrophil Count/cu. mm. of Blood” value (neutrophils [3]; day 8 after cytoxan, cytoxan only 542 ± 233)?
**A.** Its value is 1596 ± 1000 /cu. mm. of Blood.

**Q.** And the “Absolute Neutrophil Count/cu. mm. of Blood” value (neutrophils [3]; day 9 after cytoxan, *p < 0.05 versus cytoxan only 441 ± 194)?
**A.** The value was 2041 ± 423 /cu. mm. of Blood.

**Q.** What about the “Absolute Neutrophil Count/cu. mm. of Blood” value (neutrophils [3]; day 10 after cytoxan, cytoxan only 1244 ± 509) of the same compound?
**A.** Its value is 3506 ± 1130 /cu. mm. of Blood.

**Q.** What about the “Absolute Neutrophil Count/cu. mm. of Blood” value (neutrophils [3]; day 11 after cytoxan, cytoxan only 2053 ± 1002) of the same compound?
**A.** The value was 4576 ± 673 /cu. mm. of Blood.

**Q.** And the “Absolute Neutrophil Count/cu. mm. of Blood” value (neutrophils [3]; day 12 after cytoxan, cytoxan only 1885 ± 678)?
**A.** The value was 3761 ± 1394 /cu. mm. of Blood.

**Q.** And the “Absolute Neutrophil Count/cu. mm. of Blood” value (neutrophils [3]; day 13 after cytoxan, cytoxan only 3502 ± 2297)?
**A.** Its value is 3751 ± 1278 /cu. mm. of Blood.

**Q.** What about the “Absolute Neutrophil Count/cu. mm. of Blood” value (neutrophils [3]; day 14 after cytoxan, cytoxan only 3816 ± 1674) of the same compound?
**A.** Its value is 3106 ± 520 /cu. mm. of Blood.

**Q.** And the “recovery of neutrophils in cytoxan treated primates (in words)” value (neutrophils [3]; monkey, in vivo)?
**A.** Its value is “accelerates the recovery of neutrophils”.

**Q.** And the “recovery to control levels” value (neutrophils [3]; versus a day 10 recovery for the cytoxan only group)?
**A.** The value was at most 7 days.

**Q.** And the “CSF production, CFU/100,000 Bone Marrow Cells” value (CSF [4]; 0.1 mg/kg)?
**A.** The value was 154 ± 5 CFU/100,000 Bone Marrow Cells.

**Q.** And the “CSF production, CFU/100,000 Bone Marrow Cells” value (CSF [4]; 1.0 mg/kg)?
**A.** Its value is 137 ± 15 CFU/100,000 Bone Marrow Cells.

**Q.** And the Neutrophils/cu. mm. (neutrophils [5]; 100 μg/kg daily)?
**A.** The Neutrophils/cu. mm. was 982 ± 150 /cu. mm.

**Q.** What about the Neutrophils/cu. mm. (neutrophils [5]; 1000 μg/kg daily) of the same compound?
**A.** Its Neutrophils/cu. mm. is 1892 ± 293 /cu. mm.

**Q.** What about the IL-6 (IL-6; 0.1 mg/kg s.c.) of the same compound?
**A.** The IL-6 was 1340 ± 134 U/ml.

**Q.** What about the IL-6 (IL-6; 1.0 mg/kg s.c.) of the same compound?
**A.** The IL-6 was 1797 ± 284 U/ml.

**Q.** What does the source list for muroctasin?
**A.** formation of CSF (in words) (CSF [6]): appear to induce the formation of CSF; bone marrow restoration after myelosuppression (in words) (bone marrow): can aid in bone marrow restoration

**Q.** Which “formation of CSF (in words)” value (CSF [6]) does the source give for pimelautide here?
**A.** Its value is “appear to induce the formation of CSF”.

**Q.** What about the “bone marrow restoration after myelosuppression (in words)” value (bone marrow) of the same compound?
**A.** Its value is “can aid in bone marrow restoration”.

**Q.** For “KL: hemopoietic growth factor c-kit ligand (KL)”, which “Fold Increase in CFU” value [7] is on record?
**A.** The value was 66 fold.
